Source: patent US9856279B2 (AGIOS PHARMACEUTICALS, INC, priority 2011, dated 2018)

Key:
U87MG cells = assay: Cellular assay for IDH1m inhibitors: inhibition of 2-HG production (LC-MS, 48 hours) in U87MG cells; assay type: cell-based; conditions: Homo sapiens, U-87 MG, inhibition of 2-HG production, U87R132H cells; read-out: U87R132H IC50
Outline: (§1)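 Read-out: 2-HG in culture medium by LC-MS after 48 h compound exposure; IC50 = 50% reduction vs DMSO control. Cells plated 5000/well in DMEM/10% FBS, 37 °C, 5% CO2; DMSO 0.2% final.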

IDH1 R132H = IDH1 R132H (Homo sapiens, UniProt O75874, R132H); assay: Assay for IDH1 R132H inhibitors (NADPH/aKG, resazurin detection); assay type: biochemical; conditions: enzyme assay of Example 12; read-out: IDH1R132H IC50
Sequence of IDH1 R132H (O75874 whole entry R132H): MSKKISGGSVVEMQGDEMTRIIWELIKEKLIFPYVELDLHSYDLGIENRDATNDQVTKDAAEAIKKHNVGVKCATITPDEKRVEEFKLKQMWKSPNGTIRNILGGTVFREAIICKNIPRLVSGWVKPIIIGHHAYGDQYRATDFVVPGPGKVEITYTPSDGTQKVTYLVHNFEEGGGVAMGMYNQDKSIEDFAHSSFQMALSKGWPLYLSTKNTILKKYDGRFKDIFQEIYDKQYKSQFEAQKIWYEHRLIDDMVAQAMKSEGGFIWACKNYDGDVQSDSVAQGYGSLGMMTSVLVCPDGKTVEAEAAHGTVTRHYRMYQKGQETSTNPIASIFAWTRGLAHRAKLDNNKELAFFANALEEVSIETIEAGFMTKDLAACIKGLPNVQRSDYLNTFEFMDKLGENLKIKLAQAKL
Outline: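 Compound added to substrate mix (8 uM NADPH, 2 mM aKG), then enzyme mix (0.2 μg/ml IDH1 R132H); 50 min RT in 20 mM Tris pH 7.5, 150 mM NaCl, 10 mM MgCl2, 0.03% BSA. Resazurin detection mix (30 μM) 5 min RT; resorufin fluorescence Ex544/Em590.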

HT1080 cells = assay: Cellular assay for IDH1m inhibitors: inhibition of 2-HG production (LC-MS, 48 hours) in HT1080 cells; assay type: cell-based; conditions: Homo sapiens, HT-1080; inhibition of 2-HG production, HT1080 cells; read-out: HT1080 IC50
Outline: as §1

Row | SMILES | IC50 (U87MG cells) [nM] | IC50 (IDH1 R132H) [nM] | IC50 (HT1080 cells) [nM]
1 | C=Cc1cc(-c2c(C3CC3)nc(N3CCN(C(=O)C[C@@H]4CCO4)[C@H](C4CC4)C3)c(C#N)c2C)ccn1 [Compound 761, 2-cyclopropyl-6-((R)-3-cyclopropyl-4-(2-((S)-oxetan-2-yl)acetyl)piperazin-1-yl)-4-methyl-2′-vinyl-3,4′-bipyridine-5-carbonitrile] | < 500 | < 500 | < 500
2 | C=Cc1cc(-c2cc(C#N)c(N3CCN(C(=O)COCC)[C@H](C)C3)nc2C2CC2)ccn1 [Compound 573, (R)-2-cyclopropyl-6-(4-(2-ethoxyacetyl)-3-methylpiperazin-1-yl)-2′-vinyl-3,4′-bipyridine-5-carbonitrile] | < 500 | < 500 | < 500
3 | COCCC(=O)N1CCN(c2nc(C3CC3)c(-c3ccc(F)nc3)c(C)c2C#N)C[C@H]1C [Compound 346] | 500 to 1000 | < 500 | 1000 to 10000
4 | C=Cc1cc(-c2cc(C#N)c(N3CCN(C(=O)CCOC)[C@H](C(C)C)C3)nc2C2CC2)c2cccnc2n1 [Compound 626, (R)-6-cyclopropyl-2-(3-isopropyl-4-(3-methoxypropanoyl)piperazin-1-yl)-5-(2-vinyl-1,8-naphthyridin-4-yl)nicotinonitrile] | < 500 | < 500 | < 500
5 | COCCC(=O)N1CCN(c2nc(C3CC3)c(-c3ccc(NS(C)(=O)=O)cc3)c(C)c2C#N)C[C@H]1C [Compound 380, (R)—N-(4-{5-cyano-2-cyclopropyl-6-[4-(3-methoxy-propionyl)-3-methyl-piperazin-1-yl]-4-methyl-pyridin-3-yl}-phenyl)-methane sulfonamide] | 500 to 1000 | < 500 | 500 to 1000
6 | C=Cc1cnc2c(-c3cc(C#N)c(N4CCN(C(=O)CCOC)[C@H](C(C)C)C4)nc3C3CC3)cccc2n1 [Compound 605, (R)-6-cyclopropyl-2-(3-isopropyl-4-(3-methoxypropanoyl)piperazin-1-yl)-5-(2-vinylquinoxalin-5-yl)nicotinonitrile] | < 500 | < 500 | < 500
7 | COCCC(=O)N1CCN(c2nc(C3CC3)c(-c3ccc(F)cc3)c(C)c2C#N)C[C@H]1C1CC1 [Compound 299, (R)-6-cyclopropyl-2-(3-cyclopropyl-4-(3-methoxypropanoyl)piperazin-1-yl)-5-(4-fluorophenyl)-4-methylnicotinonitrile] | 500 to 1000 | < 500 | 500 to 1000
8 | C=Cc1cnnc(-c2cc(C#N)c(N3CCN(C(=O)C4CC4)[C@H](C4CC4)C3)nc2C2CC2)c1 [Compound 696, (R)-2-(4-(cyclopropanecarbonyl)-3-cyclopropylpiperazin-1-yl)-6-cyclopropyl-5-(5-vinylpyridazin-3-yl)nicotinonitrile] | < 500 | < 500 | < 500
9 | C=Cc1cc(-c2cc(C#N)c(N3CCN(C(=O)CC(F)(F)F)[C@H](C)C3)nc2C2CC2)ccn1 [Compound 444, (R)-2-cyclopropyl-6-(3-methyl-4-(3,3,3-trifluoropropanoyl)piperazin-1-yl)-2′-vinyl-3,4′-bipyridine-5-carbonitrile] | < 500 | < 500 | < 500
10 | COCCC(=O)N1CCN(c2nc(C3CC3)c(-c3cncc4ccccc34)c(C)c2C#N)C[C@H]1C [Compound 408, 6-cyclopropyl-5-(isoquinolin-4-yl)-2-((R)-4-(3-methoxypropanoyl)-3-methylpiperazin-1-yl)-4-methylnicotinonitrile] | < 500 | < 500 | 500 to 1000
11 | C=Cc1cc(-c2cc(C#N)c(N3CCN(C(=O)CC(C)(C)O)[C@H](C4CC4)C3)nc2C2CC2)ccn1 [Compound 561, (R)-2-cyclopropyl-6-(3-cyclopropyl-4-(3-hydroxy-3-methylbutanoyl)piperazin-1-yl)-2′-vinyl-3,4′-bipyridine-5-carbonitrile] | < 500 | < 500 | < 500
12 | C=Cc1ccnc(Oc2cc(C#N)c(N3CCN(C(=O)CCOC)[C@H](C4CC4)C3)nc2C2CC2)c1 [Compound 733] | < 500 | < 500 | 500 to 1000
13 | C#CC(=O)N1CC=C(c2cc(C#N)c(N3CCN(C(=O)C4CC4)[C@H](C)C3)nc2C2CC2)C1 [Compound 610, (R)-2-(4-(cyclopropanecarbonyl)-3-methylpiperazin-1-yl)-6-cyclopropyl-5-(1-propioloyl-2,5-dihydro-1H-pyrrol-3-yl)nicotinonitrile] | < 500 | < 500 | < 500
14 | C=Cc1cc(-c2c(C3CC3)nc(N3CCN(C(=O)CCOC)[C@H](C4CC4)C3)c(C#N)c2C)cnn1 [Compound 749, (R)-6-cyclopropyl-2-(3-cyclopropyl-4-(3-methoxypropanoyl)piperazin-1-yl)-4-methyl-5-(6-vinylpyridazin-4-yl)nicotinonitrile] | < 500 | < 500 | < 500
15 | C=Cc1cc(-c2cc(C#N)c(N3CCN(C(=O)C[C@H](C)O)[C@H](C4CC4)C3)nc2C2CC2)ccn1 [Compound 595, 2-cyclopropyl-6-((R)-3-cyclopropyl-4-((S)-3-hydroxybutanoyl)piperazin-1-yl)-2′-vinyl-3,4′-bipyridine-5-carbonitrile] | < 500 | < 500 | < 500

Other lines, results leading:

Row | IC50 (U87MG cells) [nM] | IC50 (IDH1 R132H) [nM] | IC50 (HT1080 cells) [nM] | SMILES
16 | < 500 | < 500 | < 500 | C=Cc1cnc2c(-c3cc(C#N)c(N4CCN(C(=O)CCOC)[C@H](C)C4)nc3C3CC3)cccc2n1 [Compound 579, (R)-6-cyclopropyl-2-(4-(3-methoxypropanoyl)-3-methylpiperazin-1-yl)-5-(2-vinylquinoxalin-5-yl)nicotinonitrile]
17 | 1000 to 10000 | < 500 | 500 to 1000 | COCCC(=O)N1CCN(c2nc(C3CC3)c(OCc3cccc([N+](=O)[O-])c3)cc2C#N)C[C@H]1C [Compound 312, (R)-6-cyclopropyl-2-(4-(3-methoxypropanoyl)-3-methylpiperazin-1-yl)-5-(3-nitrobenzyloxy)nicotinonitrile]
18 | < 500 | < 500 | < 500 | C=Cc1cc(-c2cc(C#N)c(N3CCN(C(=O)CCOC)[C@H](C)C3)nc2C2CC2)cnn1 [Compound 615, (R)-6-cyclopropyl-2-(4-(3-methoxypropanoyl)-3-methylpiperazin-1-yl)-5-(6-vinylpyridazin-4-yl)nicotinonitrile]
19 | < 500 | < 500 | < 500 | C=CC(=O)Nc1cccc(-c2cc(C#N)c(N3CCN(C(=O)CCOC)[C@H](C)C3)nc2C2CC2)c1 [Compound 343, (R)—N-(3-(5-cyano-2-cyclopropyl-6-(4-(3-methoxypropanoyl)-3-methylpiperazin-1-yl)pyridin-3-yl)phenyl)acrylamide]
20 | 1000 to 10000 | < 500 | 1000 to 10000 | CCS(=O)(=O)Nc1cccc(-c2cc(C#N)c(N3CCN(C(=O)CCOC)[C@H](C)C3)nc2C2CC2)c1 [Compound 448, (R)—N-(3-(5-cyano-2-cyclopropyl-6-(4-(3-methoxypropanoyl)-3-methylpiperazin-1-yl)pyridin-3-yl)phenyl)ethanesulfonamide]
21 | 500 to 1000 | < 500 | 1000 to 10000 | COCCC(=O)N1CCN(c2nc(C3CC3)c(-c3cccc4cc[nH]c34)cc2C#N)C[C@H]1C [Compound 373, (R)-6-cyclopropyl-5-(1H-indol-7-yl)-2-[4-(3-methoxy-propionyl)-3-methyl-piperazin-1-yl]-nicotinonitrile]
22 | 500 to 1000 | < 500 | 500 to 1000 | COCCC(=O)N1CCN(c2nc(C3CC3)c(-c3ccc4nccn4c3)cc2C#N)C[C@H]1C [Compound 436, (R)-6-cyclopropyl-5-imidazo[1,2-a]pyridin-6-yl-2-[4-(3-methoxy-propionyl)-3-methyl-piperazin-1-yl]-nicotinonitrile]
23 | < 500 | < 500 | < 500 | C=Cc1cc(-c2cc(C#N)c(N3CCN(C(=O)CCOC)[C@H](C)C3)nc2C2CC2)ccn1 [Compound 390, (R)-2-cyclopropyl-6-(4-(3-methoxypropanoyl)-3-methylpiperazin-1-yl)-2′-vinyl-3,4′-bipyridine-5-carbonitrile]
24 | 1000 to 10000 | 500 to 1000 | 1000 to 10000 | C=C(C)C(=O)Nc1cccc(-c2cc(C#N)c(N3CCN(C(=O)CCOC)[C@H](C)C3)nc2C2CC2)c1 [Compound 449, (R)—N-(3-(5-cyano-2-cyclopropyl-6-(4-(3-methoxypropanoyl)-3-methylpiperazin-1-yl)pyridin-3-yl)phenyl)methacrylamide]
25 | < 500 | < 500 | < 500 | C=Cc1ccc2c(-c3cc(C#N)c(N4CCN(C(=O)CCOC)[C@H](C)C4)nc3C3CC3)cccc2n1 [Compound 608, (R)-6-cyclopropyl-2-(4-(3-methoxypropanoyl)-3-methylpiperazin-1-yl)-5-(2-vinylquinolin-5-yl)nicotinonitrile]
26 | 500 to 1000 | 500 to 1000 | 1000 to 10000 | COCCC(=O)N1CCN(c2nc(C3CC3)c(-c3cccc(NC(=O)C(C)=O)c3)cc2C#N)C[C@H]1C [Compound 416, (R)—N-(3-(5-cyano-2-cyclopropyl-6-(4-(3-methoxypropanoyl)-3-methylpiperazin-1-yl)pyridin-3-yl)phenyl)-2-oxopropanamide]
